Assay results: patent US20260109707A1, “HETEROBIFUNCTIONAL COMPOUNDS AND METHODS OF TREATING DISEASE” (Halda Therapeutics OpCo. Inc., priority 2022, published 2026)
Read-outs that look alike come from different tables or passages of the source.

Legend:
[1] = system: T-Rex 293 cell line SC3 cells having increased expression of androgen receptor protein due to exposure to doxycycline; test: Cellular growth inhibition assay, T-Rex 293 SC3 cells with doxycycline (CellTiter-Glo, 72 hours); format: cell-based; settings: T-Rex 293 SC3 cells with increased androgen receptor expression due to doxycycline (10 ng/mL)
Outline: (§1)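 Growth inhibition is measured in an inducible AR-expressing T-Rex 293 clone, SC3, cultured with or without 10 ng/mL doxycycline in hormone-depleted medium. Test compounds are applied for 72 hours. GI50 values derive from CellTiter-Glo 2.0 signal fitted by four-parameter regression.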

[2] = system: T-Rex 293 cell line SC3 cells lacking increased expression of androgen receptor protein; test: Cellular growth inhibition assay, T-Rex 293 SC3 cells without doxycycline (CellTiter-Glo, 72 hours); format: cell-based; settings: T-Rex 293 cell line SC3 cells not exposed to doxycycline (lacking increased androgen receptor expression)
Outline: as §1

VCaP cells = test: Cellular growth inhibition assay for VCaP cells (CellTiter-Glo, 72 hours); format: cell-based, human
Outline: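 Luminescent viability signal after 72 h of compound exposure gave GI50 values by four-parameter nonlinear regression. Compounds were added in 0.5% DMSO to cells plated 24 h earlier at 5000/well in DMEM containing 10% FBS.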

Compound	GI50 (VCaP cells; Homo sapiens, VCaP, 72 h) [nM]	GI50 (VCaP cells) [nM]	GI50 ([1]; 72 h) [nM]	GI50 ([2]; 72 h) [nM]	GI50 [2] [nM]	GI50 [1] [nM]
CCNC(=O)C[C@@H]1N=C(c2ccc(N3CC(OC4CN(c5ccc(C(=O)N[C@H]6CC[C@H](Oc7ccc(C#N)c(Cl)c7)CC6)nn5)C4)C3)cc2)c2c(sc(C)c2C)-n2c(C)nnc21 [I-70]	< 500		< 500	500 to 1500		
CC[C@@H]1N=C(c2ccc(N3CCC(Cc4ccc(C(=O)N[C@H]5CC[C@H](Oc6ccc(C#N)c(Cl)c6)CC5)nn4)CC3)cc2)c2c(sc(C)c2C)-n2c(C)nnc21 [I-614]	< 500		< 500	500 to 1500		
Cc1sc2c(c1C)C(c1ccc(CC3CCC4(CCCN(c5ccc(C(=O)N[C@H]6CC[C@H](Oc7ccc(C#N)c(Cl)c7)CC6)nn5)C4)C3)cn1)=N[C@@H](C)c1nnc(C)n1-2 (stereo partly drawn) [I-636]		< 500			500 to 1500	< 500
Cc1sc2c(c1C)C(c1ccc(N3CCN(CC4CCN(c5ccc(C(=O)N[C@H]6CC[C@H](Oc7ccc(C#N)c(Cl)c7)CC6)nn5)CC4)CC3)cc1)=N[C@@H](C)c1nnc(C)n1-2 [I-498]	< 500		< 500	> 3000		
Cc1sc2c(c1C)C(c1ccc(OC3CN(C(C)(C)C4CCN(c5ccc(C(=O)N[C@H]6CC[C@H](Oc7ccc(C#N)c(Cl)c7)CC6)nn5)CC4)C3)cc1)=N[C@@H](C)c1nnc(C)n1-2 [I-587]	1500 to 3000		< 500	< 500		
Cc1sc2c(c1C)C(c1ccc(N3CCC4(CCCN(c5ncc(C(=O)N[C@H]6CC[C@H](Oc7ccc(C#N)c(Cl)c7)CC6)cn5)C4)C3)cc1)=NC(Cc1ncco1)c1nnc(C)n1-2 (stereo partly drawn) [I-804]	< 500		< 500	> 3000		
Cc1sc2c(c1C)C(c1ccccc1OC1CC3(CCCN(c4ccc(C(=O)N[C@H]5CC[C@H](Oc6ccc(C#N)c(Cl)c6)CC5)nn4)C3)C1)=N[C@@H](C)c1nnc(C)n1-2 (stereo partly drawn) [I-717]		> 3000			> 3000	> 3000
Cc1sc2c(c1C)C(c1ccc(N3CC(C4CCN(c5ccc(C(=O)N[C@H]6CC[C@H](Oc7ccc(C#N)c(Cl)c7)CC6)nn5)CC4)C3)nc1)=N[C@@H](C)c1nnc(C)n1-2 [I-463]	500 to 1500		< 500	500 to 1500		
Cc1sc2c(c1C)C(c1ccc(N3CCC4(CCN(c5ccc(C(=O)N[C@H]6CC[C@H](Oc7ccc(C#N)c(Cl)c7)CC6)nn5)CC4)C3)cc1)=N[C@@H](C)c1nnc(C)n1-2 [I-641]	< 500		< 500	< 500		
Cc1sc2c(c1C)C(c1cccc(OC3CCC4(CC3)CCN(c3ccc(C(=O)N[C@H]5CC[C@H](Oc6ccc(C#N)c(Cl)c6)CC5)nn3)C4)c1)=N[C@@H](C)c1nnc(C)n1-2 (stereo partly drawn) [I-709]	< 500				> 3000	< 500

More lines, main results first:

GI50 (VCaP cells; Homo sapiens, VCaP, 72 h) [nM]	GI50 (VCaP cells) [nM]	Compound	GI50 ([1]; 72 h) [nM]	GI50 ([2]; 72 h) [nM]	GI50 [2] [nM]	GI50 [1] [nM]
	< 500	Cc1sc2c(c1C)C(c1ccc(C3CCC4(CCN(c5ccc(C(=O)N[C@H]6CC[C@H](Oc7ccc(C#N)c(Cl)c7)CC6)nn5)CC4)C3)nc1)=N[C@@H](C)c1nnc(C)n1-2 (stereo partly drawn) [I-553]	< 500		< 500	
	> 3000	Cc1sc2c(c1C)C(c1ccc(OC3CCC4(CCCN(c5ccc(C(=O)N[C@H]6CC[C@H](Oc7ccc(C#N)c(Cl)c7)CC6)nn5)C4)C3)cc1)=NC1(CC1)c1nnc(C)n1-2 (stereo partly drawn) [I-523]	< 500		> 3000	
	> 3000	Cc1sc2c(c1C)C(c1ccc(C3CCC4(CC3)CCN(c3ccc(C(=O)N[C@H]5CC[C@H](Oc6ccc(C#N)c(Cl)c6)CC5)nn3)C4)nc1)=N[C@@H](C)c1nnc(C)n1-2 (stereo partly drawn) [I-534]			< 500	< 500
	< 500	Cc1sc2c(c1C)C(c1ccc(C3CCC4(CC3)CCN(c3ccc(C(=O)N[C@H]5CC[C@H](Oc6ccc(C#N)c(Cl)c6)CC5)nn3)C4)cc1)=N[C@@H](C)c1nnc(C)n1-2 (stereo partly drawn) [I-495]			< 500	> 3000
	< 500	Cc1sc2c(c1C)C(c1ccc(C3CCC4(CC3)CCN(c3ccc(C(=O)N[C@H]5CC[C@H](Oc6ccc(C#N)c(Cl)c6)CC5)nn3)C4)nc1)=NC1(CC1)c1nnc(C)n1-2 (stereo partly drawn) [I-608]			500 to 1500	< 500
	< 500	Cc1sc2c(c1C)C(c1ccc(C3CCC4(CC3)CCN(c3ccc(C(=O)N[C@H]5CC[C@H](Oc6ccc(C#N)c(Cl)c6)CC5)nn3)C4)cc1)=N[C@@H](Cc1ncco1)c1nnc(C)n1-2 (stereo partly drawn) [I-824, N-((1r,4r)-4-(3-chloro-4-cyanophenoxy)cyclohexyl)-6-(8-(4-((S)-2,3,9-trimethyl-6-(oxazol-2-ylmethyl)-6H-thieno[3,2-f][1,2,4]triazolo[4,3-a][1,4]diazepin-4-yl)phenyl)-2-azaspiro[4.5]decan-2-yl)pyridazine-3-carboxamide]			< 500	< 500
